Consider four compounds from patent US20230072164A1, “GRANULAR PHARMACEUTICAL PRODUCT FOR ORAL ADMINISTRATION FROM A PRE-FILLED STRAW AND METHOD OF MANUFACTURING SUCH PHARMACEUTICAL PRODUCT” (ALTERNO LABS D.O.O., priority 2020, published 2023).

Common to all, as to type: physicochemical
Data set [1] can be described thus: Sessile drop water contact angle on compressed plates. Details: key to Observed sweling: — = not measurable; * = observed; ** = fast swelling; *** = very fast swelling. The following applies: for Δ θ: decrease of water contact angle from 0 s to 30 s; for Observed sweling: during contact angle measurement; for θ at time 0 s (st. deviation) / θ at time 30 s (st. deviation): sessile drop water contact angle, 3 μL drop, flat surface plate, room temperature. The procedure: The water contact angle on compressed powders of the different polymers used as the first coating layer, trehalose and erythritol was measured with a Kruss sessile drop contact angle meter DSA100 (Krυss, Germany) at room temperature. 200 mg of powder was compressed with a Specac hydraulic press (Kent, England) with a 10 s dwell time at a pressure of 4×10^8 Pa. A circular punch and dye assembly (12 mm diameter) with polished stainless steel round punches were used for compression. At least six repetitions on three different plates of the same polymer or other two excipients were performed to ensure the reproducibility of results. Measurements were performed with 3 μL water drop and video recording (software DSA 1.90.0.14 Krυss, Germany) that enabled the determination of contact angles at time zero and 30 seconds later. Contact angles at these two-time points together with visual observation of surface swelling were taken as relevant parameters for polymers differentiation. In the same manner, trehalose and erythritol were also analyzed.

Data set [2] is described as follows: Particle size distribution by laser diffraction (dry powder). The procedure:
The particle size distribution of powder samples (crystals, coated crystals) was determined using a laser diffraction analyzer (Malvern Mastersizer 3000, Worcestershire, United Kingdom) connected to Aero S dry powder dispersion, as this technique enables measurement in the range between 100 nm and 3500 μm. Approximately 2-3 g of sample was put into the dosing device, air pressure was set to 1.2 bar for coated crystals and granulates (for micronized paracetamol the dispersing air pressure was set to 3.0 bar). Measurement was performed automatically when obscuration was in a range between 0.5 and 5%. Background measurements were performed for 10 seconds and the stabilization time delay before initialization (time before measurements after the desired obscuration was achieved) was set to 3 seconds and measurement duration to 5 seconds respectively. The nonspherical measurement mode approximation was used to determine the particle size distribution for paracetamol crystals and coated crystals. A refraction index and absorption rate for paracetamol were set to 1.62 and 0.01 respectively. The distribution results were expressed as three values: d10, where 10% of the particle population lies below the measured value; d50, the median value; and d90, where 90 percent of the population lies below the measured value.

Data set [3] in a line: Dissolution of coated paracetamol crystals in water (taste masking, non-compendial). The following applies: 100 mL purified water, room temperature. The procedure:
A non-compendial test was performed in order to simulate the taste masking efficinecy of polymer coat during drug sipping. Pure paracetamol crystals were used as reference material. 100 mL of purified water was transferred in an Erlenmeyer flask on a magnetic stirrer at room temperature. The test formulation containing 250 mg of paracetamol was suspended in the Erlenmeyer flask and aliquotes of 5.0 mL were withdrawn at intervals of 0.5, 1.0, 1.5, 2.0, 2.5, 3.0 and 5.0 minutes (±15% tolerance limit for time) and replaced with an equal volume of purified water (freshwater, maintained at the same temperature) at each sampling point. Samples were immediately filtered using 0.45 μm RC syringe filters.
Samples were appropriately diluted and analyzed by HPLC. The amount of drug release was calculated from a standard calibration curve, which was prepared on the day of the experiment.

The mark [4] stands for this setting: Example 3, coated crystals 250-500 μm, milled erythritol, final granules from high shear mixer.
Where [5] appears, read: laser diffraction, Comparative Example 1 and Example 2.

As to `OC[C@@H](O)[C@@H](O)CO` [Erythritol, erythritol], in data set [1], the “Δ θ” value came to 0 °, the Observed sweling entry is “—”, the “θ at time 0 s (st. deviation)” value worked out at 0 ° and the “θ at time 30 s (st. deviation)” value is recorded as 0 °. In data set [2] (setting [4]), the d10 is recorded as 7 μm, the d50 is 46 μm and the d90 amounted to 108 μm.

Turning to `CC(=O)Nc1ccc(O)cc1` [Paracetamol—large crystals, uncoated, paracetamol], in data set [2] (setting [5]), the d10 was found to be 208 μm, the d50 stood at 458 μm and the d90 was determined as 772 μm. The “dissolution rate in water” value in data set [3] is listed as “dissoves much faster than from coated particles”.

In data set [2] (setting [5]), `CC(=O)Nc1ccc(O)cc1` [Paracetamol—milled, uncoated, paracetamol] displayed a d10 of 5 μm, a d50 of 32 μm and a d90 of 152 μm.

For the compound `OC[C@H]1O[C@H](O[C@H]2O[C@H](CO)[C@@H](O)[C@H](O)[C@H]2O)[C@H](O)[C@@H](O)[C@@H]1O` [Trehalose, trehalose], in data set [1], the “Δ θ” value is 4.8 °, the Observed sweling result is “—”, the “θ at time 0 s (st. deviation)” value was 13.4 (1.9) ° and the “θ at time 30 s (st. deviation)” value is given as 8.6 (2.0) °.
